# Reference: US6737383B1, “Herbicidal oxadiazolidines” (priority 1999, dated 2004)
# Experiments:
# bedstraw = experiment: Test B pre/postemergence bedstraw; format: in vivo, Galium aparine
# Procedure, shortened: (§1)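 Response is a visual 0-to-10 score relative to untreated plants, where 0 means no effect and 10 means complete control, taken twelve to sixteen days after application. Treatments went onto soil at planting and onto foliage of 1- to 4-leaf plants, using a surfactant-containing non-phytotoxic solvent.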
# velvetleaf = experiment: Test B pre/postemergence velvetleaf; format: in vivo, Abutilon theophrasti; conditions: for Velvetleaf plant response rating (0 to 10 scale): 0 is no effect
# Procedure, shortened: as §1
# blackgrass = experiment: Test B pre/postemergence blackgrass; format: in vivo, Alopecurus myosuroides
# Procedure, shortened: as §1
# wheat = experiment: Test B pre/postemergence wheat; format: in vivo, Triticum aestivum; conditions: for Wheat plant response rating (0 to 10 scale): 0 is no effect
# Procedure, shortened: as §1
# [1] = Postemergence, Rate 250 g/ha, scale 0 to 10, 0 no effect, 10 complete control
# [2] = Postemergence, Rate 1000 g/ha, scale 0 to 10 (0 no effect, 10 complete control)
# [3] = Preemergence, Rate 125 g/ha, scale 0 to 10 (0 no effect, 10 complete control)
# [4] = Preemergence, Rate 250 g/ha, scale of 0 to 10 where 0 is no effect and 10 is complete control
# [5] = Preemergence, Rate 500 g/ha, scale 0 (no effect) to 10 (complete control)
# [6] = Rate 125 g/ha, Postemergence, scale 0 to 10, 0 no effect, 10 complete control
# [7] = Rate 500 g/ha, Postemergence, 0 to 10 scale (0 no effect, 10 complete control)
# [8] = Rate 1000 g/ha, Preemergence, scale 0 to 10 (0 no effect, 10 complete control)
# [9] = Postemergence, Rate 62 g/ha, scale 0 to 10, 0 is no effect, 10 is complete control
# [10] = Preemergence, Rate 62 g/ha, scale 0 to 10, 0 is no effect, 10 is complete control
# [11] = Preemergence, Rate 62 g/ha, scale 0 to 10 (0 no effect, 10 complete control)
# [12] = Rate 500 g/ha, Postemergence, scale 0 to 10, 0 no effect, 10 complete control
# [13] = Preemergence, Rate 500 g/ha, scale 0 to 10 (0 no effect, 10 complete control)
# [14] = Postemergence, Rate 125 g/ha, scale of 0 to 10 where 0 is no effect and 10 is complete control
# [15] = Preemergence, Rate 125 g/ha, 10 is complete control
# [16] = Rate 62 g/ha, Postemergence, scale of 0 to 10 where 0 is no effect and 10 is complete control
# [17] = Rate 250 g/ha, Postemergence, scale 0 to 10, 0 is no effect, 10 is complete control
# [18] = Preemergence, Rate 31 g/ha, visual rating, scale 0 to 10 (0 no effect, 10 complete control)
# [19] = Preemergence, Rate 125 g/ha, 0 is no effect, 10 is complete control
# [20] = Preemergence, Rate 250 g/ha, scale 0 to 10, 0 is no effect, 10 is complete control
# [21] = Rate 31 g/ha, Postemergence, scale 0 to 10
compound,measurement,setting,value
COc1ccc(-n2c(=O)on(C(=O)N(c3ccc(F)cc3)C(C)C)c2=O)cc1 [Compound 5],Bedstraw plant response rating,bedstraw; [1],4
same,Bedstraw plant response rating,bedstraw; [2],4
same,"Plant response rating, Bedstraw",bedstraw; [3],0
same,"Plant response rating, Bedstraw",bedstraw; [4],0
same,Bedstraw plant response rating,bedstraw; [5],0
same,Bedstraw plant response rating,bedstraw; [6],3
same,Bedstraw plant response rating,bedstraw; [7],4
same,"Plant response rating, Bedstraw",bedstraw; [8],0
same,Velvetleaf plant response rating,velvetleaf; [1],5
same,Velvetleaf plant response rating,velvetleaf; [2],7
same,"Plant response rating, Velvetleaf",velvetleaf; [3],0
same,"Plant response rating, Velvetleaf",velvetleaf; [4],0
same,Velvetleaf plant response rating,velvetleaf; [5],0
same,Velvetleaf plant response rating,velvetleaf; [6],4
same,"Plant response rating, Velvetleaf",velvetleaf; [8],0
same,Blackgrass plant response rating,blackgrass; [1],5
same,Blackgrass plant response rating,blackgrass; [2],8
same,"Plant response rating, Blackgrass",blackgrass; [3],3
same,"Plant response rating, Blackgrass",blackgrass; [4],3
same,Blackgrass plant response rating,blackgrass; [5],5
same,Blackgrass plant response rating,blackgrass; [6],4
same,Blackgrass plant response rating,blackgrass; [7],4
same,"Plant response rating, Blackgrass",blackgrass; [8],8
same,Wheat plant response rating,wheat; [1],1
same,Wheat plant response rating,wheat; [2],2
same,"Plant response rating, Wheat",wheat; [3],0
same,"Plant response rating, Wheat",wheat; [4],0
same,Wheat plant response rating,wheat; [5],0
same,Wheat plant response rating,wheat; [6],0
same,"Plant response rating, Wheat",wheat; [8],0
Cc1ccc(-n2c(=O)on(C(=O)N(c3ccc(F)cc3F)C(C)C)c2=O)c(C)c1 [Compound 24],Bedstraw plant response rating,bedstraw; [9],2
same,Bedstraw plant response rating,bedstraw; [1],8
same,"Plant response rating, Bedstraw",bedstraw; [10],0
same,"Plant response rating, Bedstraw",bedstraw; [3],0
same,"Plant response rating, Bedstraw",bedstraw; [4],0
same,Bedstraw plant response rating,bedstraw; [5],0
same,Bedstraw plant response rating,bedstraw; [6],3
same,Bedstraw plant response rating,bedstraw; [7],8
same,Velvetleaf plant response rating,velvetleaf; [9],0
same,Velvetleaf plant response rating,velvetleaf; [1],0
same,"Plant response rating, Velvetleaf",velvetleaf; [10],0
same,"Plant response rating, Velvetleaf",velvetleaf; [3],0
same,"Plant response rating, Velvetleaf",velvetleaf; [4],0
same,Velvetleaf plant response rating,velvetleaf; [5],0
same,Velvetleaf plant response rating,velvetleaf; [6],0
same,Blackgrass plant response rating,blackgrass; [9],0
same,Blackgrass plant response rating,blackgrass; [1],3
same,"Plant response rating, Blackgrass",blackgrass; [10],0
same,"Plant response rating, Blackgrass",blackgrass; [3],1
same,"Plant response rating, Blackgrass",blackgrass; [4],4
same,Blackgrass plant response rating,blackgrass; [5],4
same,Blackgrass plant response rating,blackgrass; [6],1
same,Blackgrass plant response rating,blackgrass; [7],6
same,Wheat plant response rating,wheat; [9],0
same,Wheat plant response rating,wheat; [1],0
same,"Plant response rating, Wheat",wheat; [10],0
same,"Plant response rating, Wheat",wheat; [3],0
same,"Plant response rating, Wheat",wheat; [4],0
same,Wheat plant response rating,wheat; [5],0
same,Wheat plant response rating,wheat; [6],0
CCN(Cc1ccccc1)C(=O)n1oc(=O)n(-c2ccccc2C)c1=O [Compound 71],Bedstraw plant response rating,bedstraw; [9],0
same,Bedstraw plant response rating,bedstraw; [1],0
same,Bedstraw plant response rating,bedstraw; [11],0
same,"Plant response rating, Bedstraw",bedstraw; [3],0
same,"Plant response rating, Bedstraw",bedstraw; [4],0
same,Bedstraw plant response rating,bedstraw; [5],0
same,Bedstraw plant response rating,bedstraw; [6],0
same,Bedstraw plant response rating,bedstraw; [12],0
same,Velvetleaf plant response rating,velvetleaf; [9],0
same,Velvetleaf plant response rating,velvetleaf; [1],0
same,Velvetleaf plant response rating,velvetleaf; [11],0
same,"Plant response rating, Velvetleaf",velvetleaf; [3],0
same,"Plant response rating, Velvetleaf",velvetleaf; [4],0
same,Velvetleaf plant response rating,velvetleaf; [5],0
same,Velvetleaf plant response rating,velvetleaf; [6],0
same,Velvetleaf plant response rating,velvetleaf; [12],0
same,Blackgrass plant response rating,blackgrass; [9],0
same,Blackgrass plant response rating,blackgrass; [1],0
same,Blackgrass plant response rating,blackgrass; [11],0
same,"Plant response rating, Blackgrass",blackgrass; [3],0
same,"Plant response rating, Blackgrass",blackgrass; [4],0
same,Blackgrass plant response rating,blackgrass; [5],0
same,Blackgrass plant response rating,blackgrass; [6],0
same,Blackgrass plant response rating,blackgrass; [12],0
same,Wheat plant response rating,wheat; [9],0
same,Wheat plant response rating,wheat; [1],0
same,Wheat plant response rating,wheat; [11],0
same,"Plant response rating, Wheat",wheat; [3],0
same,"Plant response rating, Wheat",wheat; [4],0
same,Wheat plant response rating,wheat; [5],0
same,Wheat plant response rating,wheat; [6],0
same,Wheat plant response rating,wheat; [12],0
CC(C)N(C(=O)n1oc(=O)n(Cc2ccccc2)c1=O)c1ccc(Cl)cc1 [Compound 106],Bedstraw plant response rating,bedstraw; [9],0
same,Bedstraw plant response rating,bedstraw; [1],3
same,Bedstraw plant response rating,bedstraw; [11],0
same,"Plant response rating, Bedstraw",bedstraw; [3],0
same,"Plant response rating, Bedstraw",bedstraw; [4],3
same,Bedstraw plant response rating,bedstraw; [13],4
same,Bedstraw plant response rating,bedstraw; [6],0
same,Bedstraw plant response rating,bedstraw; [12],7
same,Velvetleaf plant response rating,velvetleaf; [14],0
same,Velvetleaf plant response rating,velvetleaf; [11],0
same,Velvetleaf plant response rating (0 to 10 scale),velvetleaf; [15],0
same,"Plant response rating, Velvetleaf",velvetleaf; [4],0
same,Velvetleaf plant response rating,velvetleaf; [13],0
same,Velvetleaf plant response rating,velvetleaf; [16],0
same,"Plant response rating, Velvetleaf",velvetleaf; [17],2
same,Velvetleaf plant response rating,velvetleaf; [12],2
same,Blackgrass plant response rating,blackgrass; [14],0
same,Blackgrass plant response rating,blackgrass; [1],1
same,Blackgrass plant response rating,blackgrass; [11],0
same,"Plant response rating, Blackgrass",blackgrass; [3],0
same,"Plant response rating, Blackgrass",blackgrass; [4],0
same,Blackgrass plant response rating,blackgrass; [13],2
same,Blackgrass plant response rating,blackgrass; [16],0
same,Blackgrass plant response rating,blackgrass; [12],3
same,Wheat plant response rating,wheat; [14],0
same,Wheat plant response rating,wheat; [11],0
same,Wheat plant response rating (0 to 10 scale),wheat; [15],0
same,"Plant response rating, Wheat",wheat; [4],0
same,Wheat plant response rating,wheat; [13],0
same,Wheat plant response rating,wheat; [16],0
same,"Plant response rating, Wheat",wheat; [17],0
same,Wheat plant response rating,wheat; [12],0
Cc1noc(C)c1-n1c(=O)on(C(=O)N(c2ccc(F)cc2F)C(C)C)c1=O [Compound 156],Bedstraw plant response rating,bedstraw; [14],0
same,Bedstraw plant response rating,bedstraw; [18],0
same,Bedstraw plant response rating,bedstraw; [11],0
same,Bedstraw plant response rating (0 to 10 scale),bedstraw; [19],0
same,Bedstraw plant response rating,bedstraw; [20],0
same,Bedstraw plant response rating,bedstraw; [21],0
same,Bedstraw plant response rating,bedstraw; [16],0
same,"Plant response rating, Bedstraw",bedstraw; [17],0
same,Velvetleaf plant response rating,velvetleaf; [18],0
same,Velvetleaf plant response rating,velvetleaf; [11],0
same,Velvetleaf plant response rating (0 to 10 scale),velvetleaf; [15],0
same,Velvetleaf plant response rating,velvetleaf; [20],0
same,Velvetleaf plant response rating,velvetleaf; [16],0
same,"Plant response rating, Velvetleaf",velvetleaf; [17],0
same,Blackgrass plant response rating,blackgrass; [14],0
same,Blackgrass plant response rating,blackgrass; [18],0
same,Blackgrass plant response rating,blackgrass; [11],0
same,Blackgrass plant response rating (0 to 10 scale),blackgrass; [19],0
same,Blackgrass plant response rating,blackgrass; [20],3
same,Blackgrass plant response rating,blackgrass; [21],0
same,Blackgrass plant response rating,blackgrass; [16],0
same,"Plant response rating, Blackgrass",blackgrass; [17],0
same,Wheat plant response rating,wheat; [18],0
same,Wheat plant response rating,wheat; [11],0
same,Wheat plant response rating (0 to 10 scale),wheat; [15],0
same,Wheat plant response rating,wheat; [20],0
same,Wheat plant response rating,wheat; [16],0
same,"Plant response rating, Wheat",wheat; [17],0
CCN(C(=O)n1oc(=O)n(-c2ccc(F)cc2F)c1=O)C1CCCCC1 [Compound 23],Bedstraw plant response rating,bedstraw; [9],0
same,Bedstraw plant response rating,bedstraw; [1],0
same,Bedstraw plant response rating,bedstraw; [18],0
same,"Plant response rating, Bedstraw",bedstraw; [10],0
same,"Plant response rating, Bedstraw",bedstraw; [3],0
same,"Plant response rating, Bedstraw",bedstraw; [4],0
same,Bedstraw plant response rating,bedstraw; [21],0
same,Bedstraw plant response rating,bedstraw; [6],0
same,Velvetleaf plant response rating,velvetleaf; [9],0
same,Velvetleaf plant response rating,velvetleaf; [1],0
same,Velvetleaf plant response rating,velvetleaf; [18],0
same,"Plant response rating, Velvetleaf",velvetleaf; [10],0
same,"Plant response rating, Velvetleaf",velvetleaf; [3],0
same,"Plant response rating, Velvetleaf",velvetleaf; [4],0
same,Velvetleaf plant response rating,velvetleaf; [6],0
same,Blackgrass plant response rating,blackgrass; [9],0
same,Blackgrass plant response rating,blackgrass; [1],0
same,Blackgrass plant response rating,blackgrass; [18],0
same,"Plant response rating, Blackgrass",blackgrass; [10],0
same,"Plant response rating, Blackgrass",blackgrass; [3],1
same,"Plant response rating, Blackgrass",blackgrass; [4],2
same,Blackgrass plant response rating,blackgrass; [21],0
same,Blackgrass plant response rating,blackgrass; [6],0
same,Wheat plant response rating,wheat; [9],0
same,Wheat plant response rating,wheat; [1],0
same,Wheat plant response rating,wheat; [18],0
same,"Plant response rating, Wheat",wheat; [10],0
same,"Plant response rating, Wheat",wheat; [3],0
same,"Plant response rating, Wheat",wheat; [4],0
same,Wheat plant response rating,wheat; [6],0
